Reference: patent publication US9951050B2, “Method of inhibiting DYRK1B” (4SC Discovery GmbH, priority 2013, dated 2018)
Entries after “also recorded” stand apart in the source; their conditions may differ.

Experiments:
[1] = test system: Hedgehog signaling pathway (GLI1, GLI2, PTCH1 expression) in DAOY cells; test: Western blot / qPCR of Hedgehog target genes in SAG-stimulated DAOY medulloblastoma cells; type: cell-based, human; conditions: for HH signaling / GLI target gene activation: SAG stimulated DAOY cells, Harmine 10 or 25 μM, Cpd P 1 or 5 μM; for GLI1 protein expression: Western blot
Method: (§1) DAOY cells (ATCC) were grown in MEM media (PAA Laboratories, Germany) supplemented with 10% fetal bovine serum (FBS) (PAA Laboratories, Germany), penicillin (62.5 μg/ml) and streptomycin ([…]) at 37° C. in an atmosphere containing 5% CO2. BSZ2 cells (So et al., 2006) were grown in 154-CF media (Life Technologies, UK) supplemented with 2% heat inactivated (56° C. for 30 minutes) and chelexed fetal bovine serum (FBS) (PAA Laboratories, Germany) (FBS was chelexed by adding to 50 mL FBS 10 g Chelex 100 (Bio-Rad Laboratories GmbH, Germany) followed by stirring for 60 min at RT; chelexed FBS was sterile filtered prior to use), penicillin (62.5 μg/ml) and streptomycin ([…]) at 37° C. in an atmosphere containing 5% CO2. Panc-1 and A673 cells (ATCC) were grown in DMEM media (PAA Laboratories, Germany) supplemented with 10% fetal bovine serum (FBS) (PAA Laboratories, Germany), penicillin (62.5 μg/ml) and streptomycin ([…]) at 37° C. in an atmosphere containing 5% CO2. For 3-dimensional (3D) cultures, 5×10^3 cells were seeded in 12-well plates in 0.4% select agar on top of 0.5% bottom select agar (Life Technologies, Germany) according to standard protocols of anchorage independent growth assays (Eberl et al., 2012). 3D cultures were grown for 4-6 weeks at 37° C. in a humidified atmosphere containing 5% CO2. Colony formation was documented on a stereomicroscope with Cell^D Image capture system (Olympus) and quantified using Colony Counter Software (Microtec Nition, Japan). SAG (smoothened agonist, N-Methyl-N′-(3-pyridinylbenzyl)-N′-(3-chlorobenzo[b]thiophene-2-carbonyl)-1,4-diaminocyclohexane) (Axxora LCC), Harmine (Fisher Scientific), GDC-0449 (LC Laboratories), GANT61 (Merck Chemicals Ltd.) and 4SC Compound P (4SC Discovery GmbH, Germany) were dissolved in DMSO. The final DMSO concentration in all wild-type DAOY samples was 0.2%, in all other cell line experiments including DAOY shSUFU cells 0.1%.
Total RNA was isolated using TRI-reagent (Molecular Research Center Inc.) followed by LiCl purification step. For this purpose, total RNA was dissolved in 100 mM Hepes pH 7.4/6M Urea and selectively precipitated by adding LiCl to a final concentration of 3M and incubating for 2 h at −20° C. Precipitated and purified RNA was used for cDNA synthesis using Superscript II reverse transcriptase (Life Technologies, Germany) according to the manufacturer's instructions. qPCR was done on a Rotorgene3000 (Qiagen, Germany) using iQ Sybr Green Supermix reagent (Bio-Rad Laboratories, UK). For qPCR analysis the following primer pairs (Microsynth AG, Switzerland) were used:
For Western blot analysis, cells were lysed in Laemmli buffer supplemented with PhosStop (Roche, Germany) and cOmplete EDTA-free Protease Inhibitor Cocktail (Roche, Germany). Proteins were visualized with horseradish peroxidase-conjugated secondary antibodies in combination with enhanced chemiluminescence detection system (GE Health Care, USA).
To address the effect of selected gene perturbations on canonical endogenous Hedgehog signaling in a human cancer cell line, the human medulloblastoma cell line (DAOY, ATCC ident. HTB-186) showing full responsiveness to Hedgehog activation by Smoothened agonist (SAG) as evidenced by activation of the direct Hedgehog target gene GLI1, a reliable and robust indicator of Hedgehog signaling pathway activity (FIG. 1) (Chen et al., 2002).
SAG stimulated DAOY cells were treated with Harmine (7-MeO-1-Me-9H-pyrido[3,4-b]-indole) (dissolved at room temperature as 25 mM stock solution in DMSO and used at final concentration of 10 μM or 25 μM), a naturally occurring DYRK1 inhibitor, as well as with Compound P (Cpd P, dissolved at room temperature in DMSO as 20 mM stock solution and used at final concentration of 1 μM or 5 μM, respectively), a small molecule inhibitor of DYRK1, which is structurally unrelated to Harmine.

[2] = biological target: T1, DYRK1A (Homo sapiens, UniProt Q13627); test: In vitro DYRK1A kinase assay (33P-ATP, DYRKtide substrate, Reaction Biology Corp.); type: biochemical; conditions: 10 μM ATP, 20 μM DYRKtide, 0.3 nM enzyme
T1 construct: full-; Insect; N-terminal; length; GST; GST (N); purchased Reaction Biology Corp; host or cells: Insect
Method: (§2) The assay was carried out by Reaction Biology Corp., Malverne, Pa., USA according to specifications by Reaction Biology Corp., as detailed herein below and further described in Anastassiadis et al., Nature Biotechnology, 29 (2011) 1039-1045.
(§3) DYRK1A: The substrate DYRKtide (synthetic peptide […]) (SEQ ID NO: 5) was dissolved in freshly prepared Base Reaction Buffer (20 mM Hepes (pH 7.5), 10 mM MgCl2, 1 mM EGTA, 0.02% Brij35, 0.02 mg/ml BSA, 0.1 mM Na3VO4, 2 mM DTT, 1% DMSO) at a concentration of 20 μM. DYRK1A was added to the substrate solution in a concentration of 0.3 nM and gently mixed. Compound dilution series in DMSO were added to the reaction, followed 20 min later by addition of a mixture of ATP and ^33P ATP (0.01 μCi/μl final) to a final concentration of 10 μM. Reactions proceeded at 25° C. for 120 min, followed by spotting onto P81 ion exchange filter paper. Unbound phosphate was removed by extensive washing of the filters in 0.75% phosphoric acid. […] IC50 values and curve fits were obtained using Prism (Graph Pad Software).
(§4) DYRK1A and DYRK1B used in the above assays are further described in the below table: […]

[3] = biological target: T2, DYRK1B (Homo sapiens, UniProt Q9Y463); test: In vitro DYRK1B kinase assay (33P-ATP, DYRKtide substrate, Reaction Biology Corp.); type: biochemical; conditions: 10 μM ATP, 20 μM DYRKtide
T2 construct: full-; Insect; N-terminal; length; GST; GST (N); purchased Reaction Biology Corp; host or cells: Insect
T2 sequence (Q9Y463 whole entry): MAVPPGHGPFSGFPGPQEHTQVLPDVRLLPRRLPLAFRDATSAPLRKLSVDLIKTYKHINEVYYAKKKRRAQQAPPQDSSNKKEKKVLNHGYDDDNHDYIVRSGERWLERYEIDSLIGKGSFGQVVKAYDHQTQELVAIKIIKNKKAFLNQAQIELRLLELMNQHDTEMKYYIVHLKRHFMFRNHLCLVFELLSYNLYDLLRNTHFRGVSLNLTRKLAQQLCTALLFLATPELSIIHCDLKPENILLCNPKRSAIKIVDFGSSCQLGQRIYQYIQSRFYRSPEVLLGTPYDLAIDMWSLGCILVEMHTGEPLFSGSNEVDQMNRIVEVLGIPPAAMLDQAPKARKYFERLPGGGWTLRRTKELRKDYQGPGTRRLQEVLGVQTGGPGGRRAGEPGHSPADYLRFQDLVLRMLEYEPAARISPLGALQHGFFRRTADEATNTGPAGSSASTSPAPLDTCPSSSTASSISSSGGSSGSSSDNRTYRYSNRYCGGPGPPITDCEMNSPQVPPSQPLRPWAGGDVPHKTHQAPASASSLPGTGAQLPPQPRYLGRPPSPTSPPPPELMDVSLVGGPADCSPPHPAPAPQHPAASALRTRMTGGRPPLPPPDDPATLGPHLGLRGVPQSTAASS
Method: as §2, §3
The assay for DYRK1B was carried out as described above for DYRK1A, with the exception that instead of DYRK1A, DYRK1B was added to the substrate solution and gently mixed.
as §4

[4] = test system: GLI1 protein expression in A673 cells; test: Western blot of Ewing sarcoma cell line A673; type: cell-based, human; conditions: for GLI1 protein expression: GDC-0449 0.5 μM
Method: as §1, with “0.1%. […]” for “0.1%.”
(§5) The function of DYRK1 isoforms in SMO-independent/GLI-dependent pancreatic cancer and Ewing's sarcoma (EWS) cell lines PANC1 and A673, respectively, was analyzed. […]

[5] = test system: GLI1 expression in BSZ2 cells; test: Western blot of GLI1 in Ptch-/- BCC cells (BSZ2); type: cell-based; conditions: mouse Ptch-/- BCC cells (BSZ2)
Method: (§6) DAOY cells (ATCC) were grown in MEM media (PAA Laboratories, Germany) supplemented with 10% fetal bovine serum (FBS) (PAA Laboratories, Germany), penicillin (62.5 μg/ml) and streptomycin ([…]) at 37° C. in an atmosphere containing 5% CO2. BSZ2 cells (So et al., 2006) were grown in 154-CF media (Life Technologies, UK) supplemented with 2% heat inactivated (56° C. for 30 minutes) and chelexed fetal bovine serum (FBS) (PAA Laboratories, Germany) (FBS was chelexed by adding to 50 mL FBS 10 g Chelex 100 (Bio-Rad Laboratories GmbH, Germany) followed by stirring for 60 min at RT; chelexed FBS was sterile filtered prior to use), penicillin (62.5 μg/ml) and streptomycin ([…]) at 37° C. in an atmosphere containing 5% CO2. Panc-1 and A673 cells (ATCC) were grown in DMEM media (PAA Laboratories, Germany) supplemented with 10% fetal bovine serum (FBS) (PAA Laboratories, Germany), penicillin (62.5 μg/ml) and streptomycin ([…]) at 37° C. in an atmosphere containing 5% CO2. […] Colony formation was documented on a stereomicroscope with Cell^D Image capture system (Olympus) and quantified using Colony Counter Software (Microtec Nition, Japan). […]

[6] = test system: tumor-initiating L3.6pl pancreatic cancer cells; test: Anchorage-independent 3D culture clonal growth (tumorsphere) assay, L3.6pl; type: cell-based; conditions: anchorage-independent 3D cultures
[7] = test system: tumor-initiating PANC1 pancreatic cancer cells; test: Anchorage-independent 3D culture clonal growth (tumorsphere) assay, PANC1; type: cell-based, human; conditions: PANC1, anchorage-independent 3D cultures
Method: as §6

[8] = test system: GLI1 protein expression in PANC1 cells; test: Western blot of PANC1 pancreatic cancer cells; type: cell-based, human; conditions: for GLI1 protein expression: GDC-0449 0.5 μM
Method: as §1, with “0.1%. […]” for “0.1%.”
as §5

[9] = test system: GLI1 and PTCH1 expression in DAOY shSUFU cells; test: Western blot / qPCR in SUFU knockdown (shSUFU) DAOY cells, SMO-independent GLI activation; type: cell-based, human; conditions: for PTCH1 mRNA expression: qPCR
Method: as §1
In the examples of the present invention, RNAi knockdown experiments were facilitated by lentiviral RNAi production and transductions, which were carried out as described in Kasper et al, 2007, which is incorporated herein by reference (Kasper et al., 2007). The following shRNA constructs (Sigma Aldrich mission TRC library) were used and the following abbreviations are used herein: shRNA DYRK1A (TRCN0000000526), shRNA DYRK1B-1 (TRCN0000002139), shRNA DYRK1B-2 (TRCN0000355722), shSUFU (TRCN0000019466) and control scrambled shRNA (SHC002). […] Transduced cells were selected for puromycin resistance prior to further analysis.
Total RNA was isolated using TRI-reagent (Molecular Research Center Inc.) followed by LiCl purification step. […]

[10] = DAOY cells, 100 nM SAG 48 hours, starving conditions

| Structure (SMILES) | HH signaling / GLI target gene activation [1] | GLI1 protein expression [1, 10] | IC50 [2] [nM] | IC50 [3] [nM] | PTCH1 mRNA expression ([1]; qPCR, DAOY cells, 100 nM SAG 48 hours, starving conditions) | Beta Catenin expression [4] | GLI1 protein expression [4] | GLI1 expression [5] | clonal growth (sphere numbers) [6] | clonal growth (sphere numbers) [7] | Beta Catenin and STAT3 expression [8] | GLI1 protein expression [8] | GLI1 expression (protein) ([9]; Western blot) | PTCH1 mRNA expression [9] | GLI1 mRNA expression [9] |
| --- | --- | --- | --- | --- | --- | --- | --- | --- | --- | --- | --- | --- | --- | --- | --- |
| FC(F)(F)c1ccc2[nH]c(Nc3ncccn3)nc2c1 [Compound P, N-(pyrimidin-2-yl)-5-(trifluoromethyl)-1H-benzo[d]imidazol-2-amine] | significant reduction | significantly inhibited | 22.2 | 54.8 | – | – | – | – | – | – | – | – | – | – | – |
| COc1ccc2c(c1)[nH]c1c(C)nccc12 [Harmine, 7-MeO-1-Me-9H-pyrido[3,4-b]-indole] | significant reduction | significantly inhibited | – | – | significantly inhibited | essentially unaffected | reduces; also recorded: reduced levels of GLI1 | reduced GLI1 expression | reduces sphere numbers | reduces sphere numbers; also recorded: reduced clonogenic growth | essentially unaffected | reduces; also recorded: reduced levels of GLI1 | – | – | – |
| CS(=O)(=O)c1ccc(C(=O)Nc2ccc(Cl)c(-c3ccccn3)c2)c(Cl)c1 [GDC-0449, 2-chloro-N-(4-chloro-3-(pyridin-2-yl)phenyl)-4-(methylsulfonyl)benzamide] | – | efficiently blocked | – | – | – | – | inability | – | not | not and did not affect | – | resistance; also recorded: inability | unaffected; also recorded: resistant | resistant | – |
| CN(C)c1ccccc1CN1CCCN(Cc2ccccc2N(C)C)C1c1ccncc1 [GANT61, 2,2′-[[Dihydro-2-(4-pyridinyl)-1,3(2H,4H)-pyrimidinediyl]bis-(methylene)]bis[N,N-dimethylbenzenamine)] | – | – | – | – | – | – | – | – | – | – | – | – | – | down-regulation; also recorded: sensitive | down-regulation |
